The source of these data is patent publication US4769378A, “Indenopyrimidine aromatase inhibitors” (Eli Lilly and Company, priority 1986, dated 1988).

The target of one assay is T1, aromatase (Rattus norvegicus, UniProt P22443).
T1 construct: ovarian microsomes are obtained from rats treated with pregnant mares serum gonadotropin; from tissue; host or cells: rat ovary microsomes (rats treated with pregnant mares serum gonadotropin)
T1 sequence (P22443 1-508): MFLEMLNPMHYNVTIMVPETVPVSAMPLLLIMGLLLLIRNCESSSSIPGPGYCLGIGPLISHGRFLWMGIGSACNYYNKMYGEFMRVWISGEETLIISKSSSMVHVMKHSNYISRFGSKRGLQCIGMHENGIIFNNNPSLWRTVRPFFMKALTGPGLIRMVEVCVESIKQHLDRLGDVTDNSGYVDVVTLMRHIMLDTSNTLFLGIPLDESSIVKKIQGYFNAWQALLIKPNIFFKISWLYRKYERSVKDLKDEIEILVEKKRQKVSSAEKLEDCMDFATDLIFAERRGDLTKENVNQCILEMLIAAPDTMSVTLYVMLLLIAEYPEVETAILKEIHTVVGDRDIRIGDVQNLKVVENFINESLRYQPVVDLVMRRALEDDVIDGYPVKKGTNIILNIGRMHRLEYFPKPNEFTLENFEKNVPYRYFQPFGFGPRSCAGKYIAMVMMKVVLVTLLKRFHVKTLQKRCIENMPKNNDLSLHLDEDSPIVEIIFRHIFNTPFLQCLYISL
Kind of assay: Aromatase inhibition in the rat ovarian microsome assay. In kind it is biochemical. Conditions: substrate (androstenedione) concentration 0.1 μM; rat ovarian microsomes; read-out: EC50 (concentration of compound required to achieve 50% inhibition of aromatase activity). As for the experimental part:
In this test system, ovarian microsomes are obtained from rats treated with pregnant mares serum gonadotropin. Test compounds are added to reaction vials containing 0.1 μM 4-androstene-3,17-dione, 100,000 dpm 1,2[^3 H]-androstenedione, the microsomes and a NADPH generating system. The concentrations of the inhibitors tested ranged between 5 and 10000 nM. […] Potency is determined based on the concentration of inhibitor in nM required to produce a 50% inhibition of enzyme activity (EC50) when the concentration of substrate (androstenedione) is 0.1 μM.

Assay [1] concerns Estrogen synthesis (aromatization). Description: Estrogen Synthesis Inhibition in Rats.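 As to Uterine Wt. %: 100% equals the stimulated control's weight gain over the unstimulated control.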 The following applies: Rattus norvegicus, po, 168 h, gavage; for response vs control in vivo at 3 mg/kg: 3 mg/kg × 7 days; for response vs control in vivo at 30 mg/kg: 30 mg/kg × 7 days; for response vs control in vivo at 10 mg/kg: 10 mg/kg × 7 days. In kind it is in vivo, immature female Wistar rats. Here is the method:
By virtue of their ability to inhibit the enzyme aromatase, the compounds of this invention are able to inhibit the synthesis of estrogens in mammals, thereby making the compounds useful in the treatment of estrogen-dependent diseases, such as breast cancer.
Immature female Wistar rats (45-55 grams) were divided into control and test groups of 2-8 animals each. Test compounds were administered for seven days daily by gavage in corn oil. Control animals received corn oil without the test compound. Beginning on the fourth day of the test, all animals treated with the test compound and one half of the control animals were given a subcutaneous injection of 1.0 mg of testosterone propionate in corn oil. The remaining control animals received only an equivalent volume of corn oil. On the seventh day of the test, rats treated with testosterone propionate were injected subcutaneously with 100 μCi of [^3 H]-testosterone in 50 μl of saline-ethanol (3:1).
After two hours, the animals were killed by decapitation. Uteri were isolated, trimmed of extraneous connective tissue, and weighed. […] In the control animals treated with testosterone propionate, estrogens produced by aromatization stimulated the uterus resulting in an increase in weight.
Ovaries from rats treated with [^3 H]-testosterone were excised, cleaned of extraneous tissue, and homogenized in 2.5 ml of a 1.0 mM potassium phosphate buffer containing 3.0 mM MgCl2.6H2 O, 320 mM sucrose, and 0.25% Triton X-100 (polyethylene glycol p-isooctyl phenyl ether, Rohm and Haas) at pH 6.5. The ovarian steroids were extracted with 1.5 ml of 9:1 toluene/ethanol to which had been added 25 to 100 mcg each of unlabelled estradiol, estriol, and estrone, and approximately 1000 dpm of [^14 C]-estradiol. The samples were vortexed, centrifuged at 500×g for 10 minutes, and the organic phase was transferred to a conical vial. Two additional extractions were performed on the residue in the same way. The pooled organic extracts were evaporated for subsequent thin-layer chromatography.
Ovarian proteins were precipitated by the addition of 5.0 ml of ethanol to the remaining aqueous phase. After an overnight incubation at 4° C., the samples were centrifuged at 1500×g for 10 minutes. The supernatant was discarded and the pellet was dissolved in 0.3 N potassium hydroxide. Protein was determined according to the method of Bradford, Analytical Biochemistry, 72, 248 (1976).
The organic residue from each above extraction was redissolved in 9:1 dichloromethane/methanol. The solution of each sample was applied to separate silica gel thin layer chromatography plates which contained a fluorescent indicator. The plates were developed the first dimension with 160:38:1.5:0.5 dichloromethane/ethyl acetate/methanol/acetic acid to within 3 cm of the top of the plate. After air-drying, the plate was developed in the second dimension with 180:19:1 dichloromethane/methanol/ammonium hydroxide. The plate was air-dried and viewed under 254 nm UV light.
The visible spots were marked and the plates were sprayed with primulin (0.001% in 4:1 acetone/water) according to the method of Wright, J. Chromatography, 59, 220 (1971) which allowed for the identification of additional steroids under 365 nm UV light. The spots were scraped from the plate using a glass wool plugged Pasteur pipet attached to a vacuum line. The steroids were eluted directly into scintillation vials by the addition of 0.2 ml of dichloromethane followed by two washes each of 2.0 ml of methanol. The organic solvent was evaporated and 10.0 ml of scintillation fluid (Beckman Ready Solv-NA) was added to the vials. Samples were analyzed by liquid scintillation spectrometry and the corrections were made based on the recoveries of the [^14 C]-steroid.
In Table 2, values for uterine weight are expressed as the respective weights of drug treated (DT), unstimulated corn oil control (UC), and stimulated corn oil control (SC) according to the calculation %=100 (DT-UC)/(SC-UC). […]

The test system of assay [2] is DMBA-induced mammary tumors. Description: DMBA-induced Mammary Tumor Inhibition. It is filed as in vivo, female Sprague-Dawley rats. As for the experimental part: Mammary tumors were produced in female Sprague-Dawley rats which were 50-60 days old by the gavage administration of 20 mg of 7,12-dimethylbenz[a]anthracene (DMBA). About six weeks after DMBA administration, the mammary glands were palpated at weekly intervals for the appearance of tumors. Whenever one or more tumors appeared and were measurable in an animal, that animal was selected for experimentation. […] Each control and test group contained 5-8 animals. Each test compound was administered in corn oil once daily by gavage. Every experiment included a group of control rats having tumors and were given corn oil vehicle by gavage. […] The area of each tumor was calculated by multiplying the shortest and longest diameters of the tumor. The treatment and measurement of animals continued for 4-6 weeks at which time the final areas of the tumors were determined. For each compound (and control) at each dose level, the change in the mean tumor area was determined. The mean change was analyzed for its significance using Dunnett's t-test.

For a further assay, the system named is breast cancer. Conditions: Cancer Research, Vol. 42, Suppl 8 (1982); cited from earlier work.
[3] abbreviates: 100 (DT-UC)/(SC-UC), read-out: Uterine Wt. %.
[4] abbreviates: ovaries, percent of testosterone-treated controls, read-out: % steroid concentration, estradiol.
The mark [5] stands for this setting: ovaries, percent of testosterone-treated controls, read-out: % steroid concentration, estrone.

Where two headings read alike, the source gives them in different places.

Consider `Clc1ccc(C2c3ccccc3-c3ncncc32)cc1` (stereo not drawn) [Example 2, 5-(4-chlorophenyl)-5H-indeno[1,2-d]pyrimidine], for which the EC50 at aromatase was 21 nM. Moreover, the response vs control in vivo at 3 mg/kg in assay [1] (setting [3]) was determined as 49.1%; in assay [1] (setting [4]), 40.5%; in assay [1] (setting [5]), 106%. Further, the response vs control in vivo at 30 mg/kg in assay [1] (setting [3]) amounted to 33.3%; in assay [1] (setting [4]) it was 19.4%; in assay [1] (setting [5]), 83.2%. In addition, the “Final Tumor Area ± S.E.” value is given as 287 ± 94 mm^2 in assay [2] (Test II, 10 mg/kg daily by gavage, 4 weeks, control 698 ± 78); 814 ± 223 mm^2 in assay [2] (Test II, 30 mg/kg daily by gavage, 4 weeks, control 698 ± 78); 552 ± 177 mm^2 in assay [2] (Test II, 50 mg/kg daily by gavage, 4 weeks, control 698 ± 78).

Consider `Clc1ccc(C2c3ccc(Cl)cc3-c3ncncc32)cc1` (stereo not drawn) [Example 1, 8-chloro-5-(4-chlorophenyl)-5H-indeno[1,2-d]pyrimidine], for which, at aromatase, the EC50 was found to be 24 nM. Further, the response vs control in vivo at 3 mg/kg in assay [1] (setting [3]) amounted to 50.2%; in assay [1] (setting [4]), 31.5%; in assay [1] (setting [5]), 31.5%. In addition, the response vs control in vivo at 10 mg/kg amounted to 37.3% in assay [1] (setting [3]), 17.2% in assay [1] (setting [4]) and 31.4% in assay [1] (setting [5]). Moreover, the response vs control in vivo at 30 mg/kg was found to be 20.6% in assay [1] (setting [3]), 23.6% in assay [1] (setting [4]) and 118% in assay [1] (setting [5]). The “Final Tumor Area ± S.E.” value in assay [2] (Test I, 3 mg/kg daily by gavage, 4 weeks, control 741 ± 193) came out at 162 ± 93 mm^2; in assay [2] (Test I, 10 mg/kg daily by gavage, 4 weeks, control 741 ± 193), 74 ± 45 mm^2; in assay [2] (Test I, 30 mg/kg daily by gavage, 4 weeks, control 741 ± 193), 6 ± 6 mm^2.

Consider `CCC1(c2ccc(N)cc2)CCC(=O)NC1=O` (stereo not drawn) [aminoglutethimide], for which the “effect in treatment of breast cancer” value with breast cancer is on record as “beneficial effect in treatment of breast cancer”.

`Fc1ccc(C2c3ccc(F)cc3-c3ncncc32)cc1` (stereo not drawn) [Example 6, 8-fluoro-5-(4-fluorophenyl)-5H-indeno[1,2-d]pyrimidine]: the EC50 on aromatase is 24 nM. Also, the response vs control in vivo at 3 mg/kg in assay [1] (setting [3]) worked out at 0.7%; in assay [1] (setting [4]), 10.2%; in assay [1] (setting [5]) it was 70.3%. In addition, the response vs control in vivo at 30 mg/kg worked out at 6.9% in assay [1] (setting [3]), 2.9% in assay [1] (setting [4]) and 57.1% in assay [1] (setting [5]). Further, the “Final Tumor Area ± S.E.” value in assay [2] (Test III, 10 mg/kg daily by gavage, 6 weeks, control 2053 ± 778) was 109 ± 62 mm^2; in assay [2] (Test III, 30 mg/kg daily by gavage, 6 weeks, control 2053 ± 778), 393 ± 254 mm^2.

With `CC(=O)NC1(c2ccc(F)cc2)c2ccccc2-c2ncncc21` (stereo not drawn) [Example 24, N-[5-(4-fluorophenyl)-5H-indeno[1,2-d]pyrimidin-5-yl]acetamide], the EC50 at aromatase is 69 nM. In addition, the response vs control in vivo at 3 mg/kg in assay [1] (setting [3]) worked out at 32.3%; in assay [1] (setting [4]), 43.2%; in assay [1] (setting [5]), 71.9%. For the same compound, the values for the response vs control in vivo at 30 mg/kg in assay [1] (setting [3]), in assay [1] (setting [4]) and in assay [1] (setting [5]) were 23.2%, 19.2% and 59.9%, respectively.

Take `C[C@]12CCC(=O)C=C1CC[C@@H]1[C@@H]2CC[C@]2(C)OC(=O)CC[C@@H]12` [testololactone]: the “effect in treatment of breast cancer” value in the assay on breast cancer was “beneficial effect in treatment of breast cancer”.

Turning to `OC1(c2ccc(Cl)cc2Cl)c2ccccc2-c2ncncc21` (stereo not drawn) [Example 19], the EC50 at aromatase turned out to be 255 nM. The values for the response vs control in vivo at 3 mg/kg in assay [1] (setting [3]), in assay [1] (setting [4]) and in assay [1] (setting [5]) were 69.6%, 78.3% and 116%, respectively. Besides, the response vs control in vivo at 30 mg/kg in assay [1] (setting [3]) turned out to be 42.8%; in assay [1] (setting [4]), 60%; in assay [1] (setting [5]) it was 75.4%.
